The source of these data is PMC9975091 (Heliyon, 2023).

The test system of data set [1] is HCT-116. In words: MTT cytotoxicity assay, HCT-116. Format: cell-based. Particulars: Homo sapiens. In general terms: Tetrazolium dyes change colour on reduction, which living cells bring about.
Data set [2] has as its system WRL-68. In words: cells. Format: cell-based. As to conditions: for pIC50: Homo sapiens; for toxicity against normal cell line: WRL-68, result in words.
Data set [3] deals with HepG2. In words: MTT cytotoxicity assay, HepG2. Format: cell-based, human.
Data set [4] relates to MCF-7. In words: MTT cytotoxicity assay, MCF-7. Type of data set: cell-based. As to conditions: Homo sapiens.
Data set [5] has as its system PC3 cells. Particulars: read-out: IC50 proliferation rate of PC3 cells; cited from earlier work.
The mark [6] stands for this setting: HCT-116, 72 h, read-out: IC50 against HCT-116 μM 72 h.
The mark [7] stands for this setting: WRL68, 48 h, read-out: IC50 against WRL-68 μM 48 h.
Setting [8] is: WRL68, 72 h, read-out: IC50 against WRL-68 μM 72 h.
[9] abbreviates: Homo sapiens, HepG2, 48 h, read-out: IC50 against HepG2 μM 48 h, MTT, 48 h.
Where [10] appears, read: Homo sapiens, HepG2, 72 h, read-out: IC50 against HepG2 μM 72 h, MTT, 72 h.
The mark [11] stands for this setting: MCF7, 48 h, read-out: IC50 against MCF-7 μM 48 h.
The mark [12] stands for this setting: MCF7, 72 h, read-out: IC50 against MCF-7 μM 72 h.
The mark [13] stands for this setting: HCT-116, 48 h, read-out: IC50 against HCT-116 μM 48 h.

pIC50: −log10 of the molar value. Like-named read-outs stand apart in the source and are kept apart here.

As for `COc1cccc2c1C(=O)c1c(O)c3c(c(O)c1C2=O)C[C@@](O)(C(=O)CO)C[C@@H]3O[C@H]1C[C@H](N)[C@H](O)[C@H](C)O1` [Doxorubicin, reference compound], the pIC50 in data set [1] (setting [6]) was 5.92; in data set [2] (setting [7]), 5.66; in data set [2] (setting [8]), 5.76; in data set [3] (setting [9]), 5.71; in data set [3] (setting [10]) it was 5.88.

For the compound `COc1cc(-c2nc(OCc3cn(CC(=O)Nc4ccccc4)nn3)c3ccccc3n2)cc(OC)c1OC` [Compound 8k, N-phenyl-2-(4-(((2-(3,4,5-trimethoxyphenyl)quinazolin-4-yl)oxy)methyl)-1H-1,2,3-triazol-1-yl)acetamide], the pIC50 in data set [4] (setting [11]) was 4.62; in data set [4] (setting [12]) it was 4.95; in data set [1] (setting [13]), 4.16; in data set [1] (setting [6]), 4.39; in data set [2] (setting [7]), 3.93; in data set [2] (setting [8]) it was 4.07. For the same compound, the pIC50 in data set [3] (setting [9]) is 4.14; in data set [3] (setting [10]), 4.79.

Turning to `Cc1ccc(NC(=O)Cn2cc(COc3nc(-c4ccc(Cl)cc4)nc4ccccc34)nn2)cc1` [Compound 8i, 2-(4-(((2-(4-chlorophenyl)quinazolin-4-yl)oxy)methyl)-1H-1,2,3-triazol-1-yl)-N-(p-tolyl)acetamide], the pIC50 in data set [4] (setting [11]) was 3.66; in data set [4] (setting [12]), 4.01; in data set [1] (setting [13]), 4.32; in data set [1] (setting [6]), 4.62; in data set [2] (setting [7]), 3.93; in data set [2] (setting [8]), 4.06. Further, the results for the pIC50 in data set [3] (setting [9]) and in data set [3] (setting [10]) were 4.26 and 4.96, respectively.

Regarding `COc1ccc(-c2nc(OCc3cn(CC(=O)Nc4ccc(Br)cc4)nn3)c3ccccc3n2)cc1` [Compound 8c, N-(4-bromophenyl)-2-(4-(((2-(4-methoxyphenyl)quinazolin-4-yl)oxy)methyl)-1H-1,2,3-triazol-1-yl)acetamide], the pIC50 in data set [4] (setting [11]) is 3.95; in data set [4] (setting [12]), 4.21; in data set [1] (setting [13]), 4.32; in data set [1] (setting [6]), 4.91; in data set [2] (setting [7]), 3.98; in data set [2] (setting [8]) it was 4.13. Moreover, the pIC50 in data set [3] (setting [9]) was 4.52; in data set [3] (setting [10]) it was 4.89.

As to `O=C(Cn1cc(COc2nc(-c3ccc(Cl)cc3)nc3ccccc23)nn1)Nc1ccccc1` [Compound 8g, 2-(4-(((2-(4-chlorophenyl)quinazolin-4-yl)oxy)methyl)-1H-1,2,3-triazol-1-yl)-N-phenylacetamide], the pIC50 in data set [4] (setting [11]) was 4.17; in data set [4] (setting [12]) it was 4.68; in data set [1] (setting [13]), 4.31; in data set [1] (setting [6]), 4.61; in data set [2] (setting [7]), 3.99; in data set [2] (setting [8]), 4.07. The pIC50 in data set [3] (setting [9]) was 4.41; in data set [3] (setting [10]) it was 4.88.

Take `COc1cc(-c2nc(OCc3cn(CC(=O)Nc4ccc(C)cc4)nn3)c3ccccc3n2)cc(OC)c1OC` [Compound 8l, N-(p-tolyl)-2-(4-(((2-(3,4,5-trimethoxyphenyl)quinazolin-4-yl)oxy)methyl)-1H-1,2,3-triazol-1-yl)acetamide]: the pIC50 is 4.54 in data set [4] (setting [11]); 4.58 in data set [4] (setting [12]); 4.19 in data set [1] (setting [13]); 4.53 in data set [1] (setting [6]); 4.00 in data set [2] (setting [7]); 4.15 in data set [2] (setting [8]). Besides, the pIC50 in data set [3] (setting [9]) was 4.38.

On to `O=C(Cn1cc(COc2nc(-c3ccc(Cl)cc3)nc3ccccc23)nn1)Nc1cccc(Br)c1` [Compound 8j, N-(3-bromophenyl)-2-(4-(((2-(4-chlorophenyl)quinazolin-4-yl)oxy)methyl)-1H-1,2,3-triazol-1-yl)acetamide], for which the pIC50 was 3.78 in data set [4] (setting [11]); 4.25 in data set [4] (setting [12]); 3.75 in data set [1] (setting [13]); 4.27 in data set [1] (setting [6]); 3.96 in data set [2] (setting [7]); 4.10 in data set [2] (setting [8]). In addition, the pIC50 in data set [3] (setting [9]) is 4.25; in data set [3] (setting [10]), 5.07; in data set [3] (read-out: IC50 against HepG2 μM 72 h, MTT, 72 h) it was 4.90.

Turning to `COc1ccc(-c2nc(OCc3cn(CC(=O)Nc4ccc([N+](=O)[O-])cc4C)nn3)c3ccccc3n2)cc1` [Compound 8f, 2-(4-(((2-(4-methoxyphenyl)quinazolin-4-yl)oxy)methyl)-1H-1,2,3-triazol-1-yl)-N-(2-methyl-4-nitrophenyl)acetamide], the pIC50 in data set [4] (setting [11]) is 4.67; in data set [4] (setting [12]) it was 4.74; in data set [1] (setting [13]), 4.44; in data set [1] (setting [6]), 4.62; in data set [2] (setting [7]), 4.00; in data set [2] (setting [8]) it was 4.04. The values for the pIC50 in data set [3] (setting [9]) and in data set [3] (setting [10]) were 4.58 and 5.04, respectively. Moreover, in data set [2], the “toxicity against normal cell line” value was “limited toxicity”.

Regarding `COc1ccc(-c2nc(OCc3cn(CC(=O)Nc4cccc(OC)c4)nn3)c3ccccc3n2)cc1` [Compound 8e, N-(3-methoxyphenyl)-2-(4-(((2-(4-methoxyphenyl)quinazolin-4-yl)oxy)methyl)-1H-1,2,3-triazol-1-yl)acetamide], the pIC50 was 4.45 in data set [4] (setting [11]); 4.64 in data set [4] (setting [12]); 3.80 in data set [1] (setting [13]); 4.04 in data set [1] (setting [6]); 3.95 in data set [2] (setting [7]); 4.34 in data set [3] (setting [9]). In addition, the pIC50 in data set [3] (setting [10]) is 4.99.

Take `O=C(Cn1cc(COc2nc(-c3ccc(Cl)cc3)nc3ccccc23)nn1)Nc1ccc(Br)cc1` [Compound 8h, N-(4-bromophenyl)-2-(4-(((2-(4-chlorophenyl)quinazolin-4-yl)oxy)methyl)-1H-1,2,3-triazol-1-yl)acetamide]: the pIC50 is 4.47 in data set [4] (setting [11]); 4.69 in data set [4] (setting [12]); 4.37 in data set [1] (setting [13]); 4.38 in data set [1] (setting [6]); 3.94 in data set [2] (setting [7]); 4.05 in data set [2] (setting [8]). The results for the pIC50 in data set [3] (setting [9]) and in data set [3] (setting [10]) were 4.04 and 5.07, respectively.

Take `COc1ccc(-c2nc(OCc3cn(CC(=O)Nc4ccccc4)nn3)c3ccccc3n2)cc1` [Compound 8a, 2-(4-(((2-(4-methoxyphenyl)quinazolin-4-yl)oxy)methyl)-1H-1,2,3-triazol-1-yl)-N-phenylacetamide]: the pIC50 in data set [4] (setting [11]) is 4.42; in data set [4] (setting [12]) it was 4.89; in data set [1] (setting [13]), 4.97; in data set [1] (setting [6]), 5.27; in data set [2] (setting [7]) it was 3.95; in data set [2] (setting [8]), 4.03. The pIC50 is 4.76 in data set [3] (setting [9]) and 5.10 in data set [3] (setting [10]). In data set [2], the “toxicity against normal cell line” value is on record as “limited toxicity”.

Turning to `COc1ccc(-c2nc(OCc3cn(CC(=O)Nc4ccc(C)cc4)nn3)c3ccccc3n2)cc1` [Compound 8d, 2-(4-(((2-(4-methoxyphenyl)quinazolin-4-yl)oxy)methyl)-1H-1,2,3-triazol-1-yl)-N-(p-tolyl)acetamide], the pIC50 in data set [4] (setting [11]) was 4.40; in data set [4] (setting [12]) it was 4.70; in data set [1] (setting [13]), 4.52; in data set [1] (setting [6]), 5.05; in data set [2] (setting [7]) it was 3.95; in data set [2] (setting [8]), 4.08. Also, the pIC50 is 4.23 in data set [3] (setting [9]) and 4.83 in data set [3] (setting [10]).

For the compound `COc1ccc(-c2nc(OCc3cn(CC(=O)Nc4ccc(Cl)cc4)nn3)c3ccccc3n2)cc1` [Compound 8b, N-(4-chlorophenyl)-2-(4-(((2-(4-methoxyphenyl)quinazolin-4-yl)oxy)methyl)-1H-1,2,3-triazol-1-yl)acetamide], the pIC50 is 4.59 in data set [4] (setting [11]); 4.68 in data set [4] (setting [12]); 4.11 in data set [1] (setting [13]); 4.16 in data set [1] (setting [6]); 3.97 in data set [2] (setting [7]); 4.05 in data set [2] (setting [8]). Besides, the pIC50 was 4.10 in data set [3] (setting [9]) and 4.70 in data set [3] (setting [10]).

`CNC(=O)c1cc(Oc2ccc(NC(=O)Nc3ccc(Cl)c(C(F)(F)F)c3)cc2)ccn1` [sorafenib]: the pIC50 in data set [5] is 4.76.
